# In patent publication US11357777B2, “Use of sGC stimulators for the treatment of nonalcoholic steatohepatitis (NASH)” (Cyclerion Therapeutics, Inc., priority 2016, dated 2022):
# “Also recorded” adds a separate entry of the source. Read-outs that look alike come from different tables or passages of the source.
# What was measured:
# primary white adipocytes = conditions: cited from earlier work
# [1] = test system: WT mice fed a high fat diet (HFD); conditions: cited from earlier work
# human brown adipocytes = conditions: cited from earlier work
# [2] = test system: alpha-SMA (alpha-smooth muscle actin) mRNA expression; experiment: CCl4-induced changes in liver fibrosis marker in C57BL/6 mice; assay type: in vivo
# Experimental: A pilot study using male C57BL/6 mice was carried out to explore the changes in liver fibrosis biomarker after one single injection of carbon tetrachloride (CCl4) given by intraperitoneal (IP) administration and the effect of several substances, including an sGC stimulator, in this model. Injection of CCl4 in mice results in elevation of alpha-SMA (alpha-smooth muscle actin) mRNA expression and this can be used as a biomarker of fibrosis in the liver. A reduction in the expression levels of this biomarker and reversal towards the normal levels, upon administration of an sGC stimulator, can be used to assess the potential utility of the compound in the treatment of liver fibrosis.
# Mice used were 8 weeks old at receipt, healthy, and unused in other experimental procedures. Housing and care were as specified in the USDA Animal Welfare Act (9 CFR, Parts 1, and 3) and as described in the Guide for the Care and Use of Laboratory Animals from the National Research Council. Environmental conditions in housing rooms were set at the following ranges for acclimation and naive groups: temperature: 68±5° F. […], humidity: 50±:20%; light cycle: 12 hour light/12-hour dark; air changes: ten or more changes per hour with 100% HEPA filtered fresh air. Mice were given regular chow and water ad libitum and were not fasted overnight prior to compound administration.
# CCl4 was dosed once to all animals, via intraperitoneal administration (IP) at a concentration of 15 μl (dissolved in 85 μl of corn or olive oil) and a dose volume of 100 μl per 30 g of mouse. Compound A was dosed to mice via oral administration (PO, by oral gavage), BID for 3 days at a concentration of 3 mg/mL (0.5% Methylcellulose) and a dose volume of […]. The single dose of CCl4 was administered two hours after the first dose of Compound A. The second dose of Compound A was administered 7 hours after the first dose. After three days of dosing, the animals were sacrificed and plasma and liver samples obtained for analysis.
# Total RNA was extracted from isolated tissues by adding 1 ml Trizol and a stainless steel bead to each sample, and homogenized using a TissueLyser II at the highest speed (30 Hz) for 2 minutes at room temperature. After homogenization, 200 μl chloroform was added to each homogenized sample. The homogenate was vortexed briefly and left in an upright position at room temperature for 2-5 minutes until phase separation became visible by eye. Samples were centrifuged for 15 minutes at the highest speed (13,200 rpm) at 4° C. in an Eppendorf centrifuge.
# After 15 minutes at the highest speed (13,200 rpm) centrifugation at 4° C., the supernatant of each sample (˜500 μl) was transferred into a new RNase-free tube. […]
# [3] = Distribution of sGC stimulators in tissues, rats (liver and plasma by LC-MS/MS); assay type: in vivo; conditions: Wistar, rat, 2 h post fifth dose, male rats, read-out: total Liver:Plasma ratio
# Experimental: The purpose of this experiment was to determine compound concentrations in the plasma and tissues of animals dosed with sGC stimulators for 5 days Q.D.
# In a first experiment, the sGC stimulator Compound B (described previously in Example 2) was dosed for 5 Days Q.D. to male Wister rats. Rats were divided into four study groups and dosed according to the below table:
# The animals were dosed daily for five consecutive days according the table above. On each day of dosing, frozen aliquots of each dosing solution were thawed and the animals were weighed and dosed accordingly. On day 5, two hours post the fifth dose, blood was collected by orbital bleed. Blood samples were collected in EDTA tubes pre-loaded with 5 μL of 100 mM IBMX Plasma was be separated by centrifugation for 10 minutes at 4° C. and then stored at −80° C.
# A Ketamine/Xylazine/pbs solution as a 5:1:4 ratio was administered I.P. at 1 ul per gram. Once the rat was fully anesthetized (as determined by checking its reflexes) and while the heart was still beating, a needle was inserted into the left ventricle. Approximately 20 mls of PBS/IBMX/heparin solution were then perfused. The right atrium was snipped, and perfusion continued for approximately 10 additional mls (30 mls total). At this point, the femoral artery was snipped and perfusion was continued until there was no longer blood (only clear fluid) collecting in the abdominal cavity. Several tissues, including liver, were isolated and weighed followed by snap freezing.
# A second separate and similar experiment was carried out with Compound C. The structure of Compound C is depicted below. The preparation and characterization of this compound was described in patent application publication WO2014144100, published 18 Sep. 2014.
# For this second experiment, rats were divided into four study groups and dosed according to the below table:
# Samples were analyzed using liquid chromatography (LC) with tandem mass spectrometric detection (MS/MS) using positive electrospray ionization. The standard curve range was from 0.1 to 400 ng/mL. […]
# In order to prepare the tissues for measurement, the naïve livers and the livers isolated after treatment were removed from the −80° C. freezer and placed on liquid nitrogen. The liver weight was recorded and then the tissue placed in a Geno grinding vial containing two 7/16″ steel beads. […] Approximately 200 mg of tissue from each sample was weighed and recorded. […] The samples were analyzed by LC-MS/MS.
# Total liver and plasma concentrations were measured and liver concentrations were corrected for total liver weight. Liver: Plasma ratios were determined by dividing liver compound concentration by the plasma compound concentration. […]
# rat animal model of NASH = conditions: cited from earlier work
# OB/OB mice = conditions: cited from earlier work
# [4] = 8 weeks at 300 mg/kg/24 hours in food and intraperitoneally at 1 mg/kg
smiles,measurement,setting,value
Nc1nc(-c2nn(Cc3ccccc3F)c3ncccc23)nc(N)c1N1CCOCC1 [BAY 41-8543],browning of primary white adipocytes,primary white adipocytes,induces ‘browning’; also recorded: induces “browning”
same,lipid uptake into BAT,[1]; [4],enhances
same,whole-body energy expenditure,[1]; [4],increases
same,triglyceride content in the liver,"[1]; WT mice fed a HFD, obese phenotype, compared to mice fed regular chow",significant reduction
same,diabetic phenotype,"[1]; mouse, in vivo",improves
same,diet-induced weight gain and liver steatosis,"[1]; mouse, in vivo",protects against
same,weight loss in established obesity,"[1]; mouse, in vivo",induces weight loss
same,differentiation of human brown adipocytes,human brown adipocytes,enhances
NC(=O)[C@@](O)(CNc1nc(-c2cc(-c3ccon3)n(Cc3ccccc3F)n2)ncc1F)C(F)(F)F [Compound A],relative reduction of the increased alpha-SMA mRNA expression levels,[2]; 30 mg/kg dose,about 66%
same,reduction of alpha-SMA expression compared with pirfenidone-treated samples,"[2]; PO BID for 3 days, single IP CCl4",significantly more pronounced
same,reduction of elevated levels of alpha-SMA expression compared to vehicle,"[2]; PO BID for 3 days, single IP CCl4, vs vehicle (0.5% methyl cellulose)",statistically significant reduction
NC(=O)[C@](O)(CNc1nc(-c2cc(-c3ccon3)n(Cc3ccccc3F)n2)ncc1F)C(F)(F)F [Compound C],Kp,[3]; 1 mg/kg PO Q.D. 5 days,6
same,Kp,[3]; 10 mg/kg PO Q.D. 5 days,8
"CC(=O)N[C@@H](CSN=O)C(=O)O [SNAP, S-Nitroso-N-acetylcysteine]",onset of NASH,rat animal model of NASH,prevent the onset of NASH
same,effect on NASH,OB/OB mice,prevent and reverse NASH
"Cc1ccc(=O)n(-c2ccccc2)c1 [pirfenidone, reference compound]",relative reduction of the increased alpha-SMA mRNA expression levels,[2]; 400 mg/kg dose,about 20%
